These results are taken from patent publication US20150284331A1 (priority 2012, published 2015).

Usually IC50 stands for the concentration needed to halve the response being measured.

Assay [1] has as its target T1, acetylcholinesterase (Rattus norvegicus, UniProt P37136).
T1 construct: Acetylcholinesterase: rat cortex; from tissue; host or cells: rat cortex
T1 sequence (P37136 32-614): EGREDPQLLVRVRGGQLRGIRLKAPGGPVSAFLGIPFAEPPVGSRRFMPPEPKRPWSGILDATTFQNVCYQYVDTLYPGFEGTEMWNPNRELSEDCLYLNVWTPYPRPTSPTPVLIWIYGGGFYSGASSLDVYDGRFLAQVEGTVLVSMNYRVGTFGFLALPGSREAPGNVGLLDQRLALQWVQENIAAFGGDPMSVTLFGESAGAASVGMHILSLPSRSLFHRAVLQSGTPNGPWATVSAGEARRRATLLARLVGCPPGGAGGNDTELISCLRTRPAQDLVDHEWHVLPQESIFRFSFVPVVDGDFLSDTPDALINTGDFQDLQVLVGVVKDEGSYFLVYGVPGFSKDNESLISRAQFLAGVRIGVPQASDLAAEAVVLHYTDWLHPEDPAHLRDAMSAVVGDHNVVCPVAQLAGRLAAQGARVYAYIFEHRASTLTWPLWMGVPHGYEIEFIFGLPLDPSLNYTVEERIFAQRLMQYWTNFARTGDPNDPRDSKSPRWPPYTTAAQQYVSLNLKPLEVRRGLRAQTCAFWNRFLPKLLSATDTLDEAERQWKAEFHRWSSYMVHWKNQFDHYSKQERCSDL
Nature of the assay: biochemical. The assay is classed as biochemical. The note with it: rat cortex enzyme; for acetylcholinesterase inhibitory activity inhibition ratio (%): final concentration 4×10−5 mol/L; for IC50: read-out: acetylcholinesterase inhibitory activity IC50 (nmol). As to the method: (§1) Sample processing: All samples were formulated as 10-2 mol/L solution by using 100% DMSO. 10-2 mol/L solution was used in microdetermination. 1 μL was taken to use in single tube experiment.
(§2) Solvent control: 0.4% DMSO was used in microdetermination. The inhibition ratio of the sample was obtained wherein the effect of solvent was deducted.
Acetylcholinesterase: rat cortex

Assay [2] deals with T2, butyrylcholinesterase (Rattus norvegicus, UniProt Q9JKC1).
T2 construct: Butyrylcholinesterase: rat serum; from tissue; host or cells: rat serum
T2 sequence (Q9JKC1 24-597): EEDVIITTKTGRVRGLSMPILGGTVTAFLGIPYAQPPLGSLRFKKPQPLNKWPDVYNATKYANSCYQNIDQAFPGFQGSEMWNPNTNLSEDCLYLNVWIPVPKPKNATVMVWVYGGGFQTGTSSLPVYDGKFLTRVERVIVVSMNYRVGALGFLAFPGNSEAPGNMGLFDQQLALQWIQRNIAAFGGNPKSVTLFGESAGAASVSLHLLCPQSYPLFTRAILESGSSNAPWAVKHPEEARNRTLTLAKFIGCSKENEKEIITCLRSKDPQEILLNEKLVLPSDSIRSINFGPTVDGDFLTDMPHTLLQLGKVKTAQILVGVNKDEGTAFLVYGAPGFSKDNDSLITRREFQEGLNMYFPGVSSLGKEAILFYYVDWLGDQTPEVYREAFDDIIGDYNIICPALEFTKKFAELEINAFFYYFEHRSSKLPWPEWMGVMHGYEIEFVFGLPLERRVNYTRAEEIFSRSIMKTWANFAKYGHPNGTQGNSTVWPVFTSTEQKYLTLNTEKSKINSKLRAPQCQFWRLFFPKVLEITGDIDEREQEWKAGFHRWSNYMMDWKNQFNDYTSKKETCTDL
The assay can be described thus: inhibition of butyrylcholinesterase (rat serum). The assay is classed as biochemical. To be noted: rat serum enzyme; final concentration 4×10−5 mol/L. How it is done:
as §1, §2
Butyrylcholinesterase: rat serum

Take `COc1cc2c(cc1OC)C(=O)C(CC1(F)CCN(Cc3ccc(C(F)(F)F)cc3)CC1)C2` (centres unmarked) [DC16, 2-((4-fluoro-1-(4-(trifluoromethyl)benzyl)piperidin-4-yl)methyl)-5,6-dimethoxy-2,3-dihydro-1H-inden-1-one]: the “acetylcholinesterase inhibitory activity inhibition ratio (%)” value in assay [1] is 75.25%. Also, in assay [2], the “butyrylcholinesterase inhibitory activity inhibition ratio (%)” value came to 0.00%. Turning to `COc1cc2c(cc1OC)C(=O)C(CC1(F)CCN(Cc3ccc(F)cc3)CC1)C2` (centres unmarked) [DC5, 2-((4-fluoro-1-(4-fluorobenzyl)piperidin-4-yl)methyl)-5,6-dimethoxy-2,3-dihydro-1H-inden-1-one], in assay [1], the “acetylcholinesterase inhibitory activity inhibition ratio (%)” value is listed as 82.04% and the concentration for half-maximal inhibition (IC50) is 2.67 nM. Further, in assay [2], the “butyrylcholinesterase inhibitory activity inhibition ratio (%)” value is given as 0.00%. Consider `COc1cc2c(cc1OC)C(=O)C(CC1(F)CCN(Cc3ccc(-c4ccccc4)cc3)CC1)C2` (centres unmarked) [DC36, 2-((1-([1,1′-biphenyl]-4-ylmethyl)-4-fluoropiperidin-4-yl)methyl)-5,6-dimethoxy-2,3-dihydro-1H-inden-1-one], for which the “acetylcholinesterase inhibitory activity inhibition ratio (%)” value in assay [1] is recorded as 90.25%. For the same molecule, the “butyrylcholinesterase inhibitory activity inhibition ratio (%)” value in assay [2] is on record as 5.18%. On to `COc1cc2c(cc1OC)C(=O)C(CC1(F)CCN(Cc3cc(F)cc(F)c3F)CC1)C2` (centres unmarked) [DC35, 2-((4-fluoro-1-(2,3,5-trifluorobenzyl)piperidin-4-yl)methyl)-5,6-dimethoxy-2,3-dihydro-1H-inden-1-one], for which the “acetylcholinesterase inhibitory activity inhibition ratio (%)” value in assay [1] came to 94.39%. Besides, the “butyrylcholinesterase inhibitory activity inhibition ratio (%)” value in assay [2] came to 10.08%. As for `COc1cc2c(cc1OC)C(=O)C(CC1(F)CCN(Cc3cc(F)c(F)cc3F)CC1)C2` (centres unmarked) [DC17, 2-((4-fluoro-1-(2,4,5-trifluorobenzyl)piperidin-4-yl)methyl)-5,6-dimethoxy-2,3-dihydro-1H-inden-1-one], in assay [1], the “acetylcholinesterase inhibitory activity inhibition ratio (%)” value came out at 81.84% and the 50% inhibitory concentration (IC50) was determined as 2 nM. Also, in assay [2], the “butyrylcholinesterase inhibitory activity inhibition ratio (%)” value is given as 49.79%.

As for `COc1cc2c(cc1OC)C(=O)C(CC1(F)CCN(CC3CCCCCC3)CC1)C2` (centres unmarked) [DC34, 2-((1-(cycloheptylmethyl)-4-fluoropiperidin-4-yl)methyl)-5,6-dimethoxy-2,3-dihydro-1H-inden-1-one], the “acetylcholinesterase inhibitory activity inhibition ratio (%)” value in assay [1] was 95.57%. Moreover, in assay [2], the “butyrylcholinesterase inhibitory activity inhibition ratio (%)” value stood at 68.48%.

With `COc1cc2c(cc1OC)C(=O)C(CC1(F)CCN(CCc3ccccc3)CC1)C2` (centres unmarked) [DC110, 2-((4-fluoro-1-phenethylpiperidin-4-yl)methyl)-5,6-dimethoxy-2,3-dihydro-1H-inden-1-one], in assay [1], the “acetylcholinesterase inhibitory activity inhibition ratio (%)” value was determined as 88.55% and the 50% inhibitory concentration (IC50) was 12.3 nM. In addition, in assay [2], the “butyrylcholinesterase inhibitory activity inhibition ratio (%)” value came out at 66.30%. As for `COc1cc2c(cc1OC)C(=O)C(CC1(F)CCN(Cc3ccc(F)cc3F)CC1)C2` (centres unmarked) [DC10, 2-((1-(2,4-difluorobenzyl)-4-fluoropiperidin-4-yl)methyl)-5,6-dimethoxy-2,3-dihydro-1H-inden-1-one], the “acetylcholinesterase inhibitory activity inhibition ratio (%)” value in assay [1] came out at 97.34%. Also, the “butyrylcholinesterase inhibitory activity inhibition ratio (%)” value in assay [2] was 83.11%.

Take `COc1cc2c(cc1OC)C(=O)C(CC1(F)CC3CCC(C1)N3Cc1ccccc1Br)C2` (centres unmarked) [DC54, 2-((8-(2-bromobenzyl)-3-fluoro-8-azabicyclo[3.2.1]octan-3-yl)methyl)-5,6-dimethoxy-2,3-dihydro-1H-inden-1-one]: the “acetylcholinesterase inhibitory activity inhibition ratio (%)” value in assay [1] was 90.3%. With `COc1cc2c(cc1OC)C(=O)C(CC1(F)CCN(Cc3ccc([N+](=O)[O-])cc3)CC1)C2` (centres unmarked) [DC1, 2-((4-fluoro-1-(4-nitrobenzyl)piperidin-4-yl)methyl)-5,6-dimethoxy-2,3-dihydro-1H-inden-1-one], in assay [1], the “acetylcholinesterase inhibitory activity inhibition ratio (%)” value is 72.85% and the IC50 is 8780 nM. For the same molecule, the “butyrylcholinesterase inhibitory activity inhibition ratio (%)” value in assay [2] stood at 46.68%. Regarding `COc1cc2c(cc1OC)C(=O)C(CC1(F)CC3CCC(C1)N3Cc1cccc(C)c1)C2` (centres unmarked) [DC69, 2-((3-fluoro-8-(3-methylbenzyl)-8-azabicyclo[3.2.1]octan-3-yl)methyl)-5,6-dimethoxy-2,3-dihydro-1H-inden-1-one], in assay [1], the “acetylcholinesterase inhibitory activity inhibition ratio (%)” value worked out at 97.49%. Also, in assay [2], the “butyrylcholinesterase inhibitory activity inhibition ratio (%)” value is given as 58.86%. Take `COc1cc2c(cc1OC)C(=O)C(CC1(F)CCN(Cc3ccccc3C#N)CC1)C2` (centres unmarked) [DC3, 2-((4-((5,6-dimethoxy-1-oxo-2,3-dihydro-1H-inden-2-yl)methyl)-4-fluoropiperidin-1-yl)methyl)benzonitrile]: the “acetylcholinesterase inhibitory activity inhibition ratio (%)” value in assay [1] stood at 80.04%. Moreover, in assay [2], the “butyrylcholinesterase inhibitory activity inhibition ratio (%)” value is listed as 36.42%. On to `COc1cc2c(cc1OC)C(=O)C(CC1(F)CC3CCC(C1)N3Cc1cc(F)cc(F)c1F)C2` (centres unmarked) [DC75, 2-((3-fluoro-8-(2,3,5-trifluorobenzyl)-8-azabicyclo[3.2.1]octan-3-yl)methyl)-5,6-dimethoxy-2,3-dihydro-1H-inden-1-one], for which, in assay [1], the “acetylcholinesterase inhibitory activity inhibition ratio (%)” value turned out to be 72.53%. The “butyrylcholinesterase inhibitory activity inhibition ratio (%)” value in assay [2] was determined as 13.53%.

Take `COc1cc2c(cc1OC)C(=O)C(CC1(F)CCN(C(=O)c3ccccc3)CC1)C2` (centres unmarked) [DC23, 2-((1-benzoyl-4-fluoropiperidin-4-yl)methyl)-5,6-dimethoxy-2,3-dihydro-1H-inden-1-one]: in assay [1], the “acetylcholinesterase inhibitory activity inhibition ratio (%)” value was found to be 57.09%. Besides, in assay [2], the “butyrylcholinesterase inhibitory activity inhibition ratio (%)” value stood at 0.00%. `COc1cc2c(cc1OC)C(=O)C(CC1(F)CCN(Cc3cccc(C#N)c3)CC1)C2` (centres unmarked) [DC13, 3-((4-((5,6-dimethoxy-1-oxo-2,3-dihydro-1H-inden-2-yl)methyl)-4-fluoropiperidin-1-yl)methyl)benzonitrile]: the “acetylcholinesterase inhibitory activity inhibition ratio (%)” value in assay [1] is given as 97.19%. Besides, in assay [2], the “butyrylcholinesterase inhibitory activity inhibition ratio (%)” value stood at 29.25%.

On to `COc1cc2c(cc1OC)C(=O)C(CC1(F)CC3CCC(C1)N3Cc1cccc(C(F)(F)F)c1)C2` (centres unmarked) [DC70, 2-((3-fluoro-8-(3-(trifluoromethyl)benzyl)-8-azabicyclo[3.2.1]octan-3-yl)methyl)-5,6-dimethoxy-2,3-dihydro-1H-inden-1-one], for which the “acetylcholinesterase inhibitory activity inhibition ratio (%)” value in assay [1] is reported as 76.51%. Further, in assay [2], the “butyrylcholinesterase inhibitory activity inhibition ratio (%)” value was found to be 0.09%. For the molecule `COc1cc2c(cc1OC)C(=O)C(CC1(F)CCN(Cc3cccc(F)c3)CC1)C2` (centres unmarked) [DC21, 2-((4-fluoro-1-(3-fluorobenzyl)piperidin-4-yl)methyl)-5,6-dimethoxy-2,3-dihydro-1H-inden-1-one], the “acetylcholinesterase inhibitory activity inhibition ratio (%)” value in assay [1] turned out to be 82.24%. The “butyrylcholinesterase inhibitory activity inhibition ratio (%)” value in assay [2] is 75.02%.

In the case of `COc1cc2c(cc1OC)C(=O)C(CC1(F)CC3CCC(C1)N3Cc1cccc(Br)c1)C2` (centres unmarked) [DC51, 2-((8-(3-bromobenzyl)-3-fluoro-8-azabicyclo[3.2.1]octan-3-yl)methyl)-5,6-dimethoxy-2,3-dihydro-1H-inden-1-one], in assay [1], the “acetylcholinesterase inhibitory activity inhibition ratio (%)” value amounted to 85.08%. Besides, the “butyrylcholinesterase inhibitory activity inhibition ratio (%)” value in assay [2] worked out at 15.26%. Consider `COc1cc2c(cc1OC)C(=O)C(CC1(F)CC3CCC(C1)N3Cc1ccccc1C#N)C2` (centres unmarked) [DC43, 2-((3-((5,6-dimethoxy-1-oxo-2,3-dihydro-1H-inden-2-yl)methyl)-3-fluoro-8-azabicyclo[3.2.1]octan-8-yl)methyl)benzonitrile], for which the “acetylcholinesterase inhibitory activity inhibition ratio (%)” value in assay [1] was 88.9%. As to `COc1cc2c(cc1OC)C(=O)C(CC1(F)CC3CCC(C1)N3Cc1c(F)cccc1[N+](=O)[O-])C2` (centres unmarked) [DC48, 2-((3-fluoro-8-(2-fluoro-6-nitrobenzyl)-8-azabicyclo[3.2.1]octan-3-yl)methyl)-5,6-dimethoxy-2,3-dihydro-1H-inden-1-one], in assay [1], the “acetylcholinesterase inhibitory activity inhibition ratio (%)” value amounted to 77.3%. `COc1cc2c(cc1OC)C(=O)C(CC1(F)CC3CCC(C1)N3Cc1ccc(-c3ccccc3)cc1)C2` (centres unmarked) [DC76, 2-((8-([1,1′-biphenyl]-4-ylmethyl)-3-fluoro-8-azabicyclo[3.2.1]octan-3-yl)methyl)-5,6-dimethoxy-2,3-dihydro-1H-inden-1-one]: the “acetylcholinesterase inhibitory activity inhibition ratio (%)” value in assay [1] is recorded as 85.3%. `COc1cc2c(cc1OC)C(=O)C(CC1(F)CCN(Cc3c(F)c(F)c(F)c(F)c3F)CC1)C2` (centres unmarked) [DC28, 2-((4-fluoro-1-((perfluorophenyl)methyl)piperidin-4-yl)methyl)-5,6-dimethoxy-2,3-dihydro-1H-inden-1-one]: the “acetylcholinesterase inhibitory activity inhibition ratio (%)” value in assay [1] is 96.5%. In the case of `COc1cc2c(cc1OC)C(=O)C(CC1(F)CC3CCC(C1)N3Cc1ccc([N+](=O)[O-])cc1)C2` (centres unmarked) [DC41, 2-((3-fluoro-8-(4-nitrobenzyl)-8-azabicyclo[3.2.1]octan-3-yl)methyl)-5,6-dimethoxy-2,3-dihydro-1H-inden-1-one], the “acetylcholinesterase inhibitory activity inhibition ratio (%)” value in assay [1] amounted to 56.8%.
